Among the test systems are SF-539; COLO 205; HOP-92; 786-0; HL-60; ACHN; PC-3; UO-31; NCI/ADR-RES; SW-620; SNB-75; NCI-H226; HOP-62; OVCAR-8; MDA-MB-435; NCI-H522; U-251; SK-MEL-5; SNB-19.
What all share (assay): inhibition of tumour cell growth, NCI panel, 48 h

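All cell lines were grown in 96-well plates and treated with compound for 48 hours. GI50: concentration for 50% inhibition of growth.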 Active and inactive are the calls of the source. Cut-off read from the data, not from the text of the source: active = GI50 up to about 1.1 µM and inactive = higher. Where only a bound is given, the exact number is not on record here.

For `COC(=O)C1(Cc2ccc3c(c2)CCC3)Cc2ccc3c(c2C1=O)CCC3` (stereo not given), the GI50 in the experiment with SF-539 was 5.68 µM (inactive); in the experiment with COLO 205, 3.05 µM (inactive); with HOP-92, 4.84 µM (inactive); in the experiment on 786-0, 7.33 µM (inactive); in the experiment on HL-60, 2.86 µM (inactive); with ACHN, 18.6 µM (inactive). Also, the GI50 in the experiment with PC-3 is 9.02 µM (inactive); in the experiment on UO-31, 10.6 µM (inactive); in the experiment on NCI/ADR-RES, 3.07 µM (inactive); with SW-620, 4.11 µM (inactive); in the experiment on SNB-75 it was 5.42 µM (inactive); in the experiment on NCI-H226, 10.5 µM (inactive). Also, the GI50 in the experiment on HOP-62 was 7.23 µM (inactive); in the experiment with OVCAR-8, 15.2 µM (inactive); in the experiment on MDA-MB-435, 1.73 µM (inactive); with NCI-H522 it was 3.92 µM (inactive); in the experiment with U-251, 4.65 µM (inactive); with SK-MEL-5 it was 4.35 µM (inactive). For the same compound, the GI50 in the experiment with SNB-19 was 8.91 µM (inactive).

For `CC(=O)OC1C[C@@H](C)C2(CC(c3ccoc3)OC2=O)C2CCC(O)C3(CO3)C12CO` (stereo not given in full), the GI50 in the experiment with SF-539, in the experiment on COLO 205, in the experiment on HOP-92, in the experiment with 786-0, in the experiment on HL-60 and in the experiment with ACHN was > 100 µM (inactive) in each case. For the same compound, the GI50 in the experiment with PC-3, with UO-31, with NCI/ADR-RES, in the experiment on SW-620, in the experiment with SNB-75 and with NCI-H226 was > 100 µM (inactive) in each case. Moreover, the GI50 with HOP-62, with OVCAR-8, in the experiment with MDA-MB-435, in the experiment on NCI-H522, with U-251 and in the experiment with SK-MEL-5 was > 100 µM (inactive) throughout. In addition, the GI50 in the experiment with SNB-19 is > 100 µM (inactive).

On to `c1ccc2c(c1)NC1(N3CCCCC3)CCCCC21` (stereo not given), for which the GI50 with SF-539 was > 100 µM (inactive); with COLO 205 it was 62.1 µM (inactive); with HOP-92, 20 µM (inactive); in the experiment with 786-0 it was 61 µM (inactive); in the experiment on HL-60 it was 29.6 µM (inactive); in the experiment on ACHN it was 47.1 µM (inactive). Also, the GI50 in the experiment on PC-3 was 39.4 µM (inactive); in the experiment on UO-31, 51.9 µM (inactive); in the experiment on NCI/ADR-RES, 91.8 µM (inactive); in the experiment on SW-620, 41.2 µM (inactive); in the experiment with SNB-75, 22.5 µM (inactive); with NCI-H226, 52.4 µM (inactive). In addition, the GI50 in the experiment with HOP-62 was > 100 µM (inactive); in the experiment on OVCAR-8 it was 63.2 µM (inactive); with MDA-MB-435, 35.2 µM (inactive); with NCI-H522, 35.8 µM (inactive); in the experiment on U-251, 41.2 µM (inactive); with SK-MEL-5 it was 56.1 µM (inactive). Further, in the experiment with SNB-19, the GI50 was 51.5 µM (inactive).

For `COc1ccc(C[C@H]2NC[C@H](OC(C)=O)[C@H]2OC(C)=O)cc1`, the GI50 in the experiment on SF-539 is 0.441 µM (active); in the experiment on COLO 205, 0.147 µM (active); in the experiment on HOP-92 it was 0.0417 µM (active); in the experiment on 786-0, 0.0776 µM (active); with HL-60, 0.1 µM (active); in the experiment with ACHN, 0.106 µM (active). Moreover, the GI50 is 0.21 µM (active) in the experiment on PC-3; 0.0583 µM (active) in the experiment with UO-31; 0.171 µM (active) in the experiment with NCI/ADR-RES; 0.186 µM (active) in the experiment with SW-620; 0.0721 µM (active) in the experiment with SNB-75; 0.172 µM (active) in the experiment on NCI-H226. Besides, the GI50 in the experiment with HOP-62 is 0.195 µM (active); in the experiment with OVCAR-8 it was 0.191 µM (active); in the experiment on MDA-MB-435, 0.164 µM (active); in the experiment with NCI-H522, 0.0525 µM (active); with U-251, 0.304 µM (active); in the experiment on SK-MEL-5, 0.0665 µM (active). In the experiment with SNB-19, the GI50 is 0.0935 µM (active).

Consider `CC(=O)CCCCC(=O)Nc1ccc(CC(NC(=O)OC(C)(C)C)C(=O)NCC(=O)OCc2ccccc2)cc1` (stereo not given), for which the GI50 in the experiment on SF-539 is 18.8 µM (inactive); with COLO 205 it was 18.5 µM (inactive); with HOP-92, 29.1 µM (inactive); in the experiment on 786-0, 21.7 µM (inactive); in the experiment on HL-60 it was 19.5 µM (inactive); in the experiment on ACHN, 30.5 µM (inactive). Further, the GI50 was 14.4 µM (inactive) in the experiment on PC-3; 22.7 µM (inactive) in the experiment with UO-31; > 100 µM (inactive) with NCI/ADR-RES; 16.6 µM (inactive) with SW-620; 4.44 µM (inactive) in the experiment with SNB-75; 34.8 µM (inactive) in the experiment with NCI-H226. In addition, the GI50 is 13.8 µM (inactive) in the experiment on HOP-62; 20 µM (inactive) in the experiment on OVCAR-8; 21.2 µM (inactive) in the experiment on MDA-MB-435; 23.6 µM (inactive) with NCI-H522; 18.7 µM (inactive) in the experiment on U-251; 14.7 µM (inactive) in the experiment on SK-MEL-5. The GI50 in the experiment on SNB-19 is 21.9 µM (inactive).

With `NC(Cc1c2ccccc2cc2ccccc12)C(=O)O` (stereo not given), the GI50 is > 100 µM (inactive) in the experiment with SF-539; 38.4 µM (inactive) in the experiment with COLO 205; 61.1 µM (inactive) in the experiment on HOP-92; > 100 µM (inactive) in the experiment on 786-0; > 100 µM (inactive) in the experiment on HL-60; 83 µM (inactive) in the experiment with ACHN. In addition, the GI50 in the experiment on PC-3 was > 100 µM (inactive); with UO-31, 78.7 µM (inactive); in the experiment on NCI/ADR-RES, > 100 µM (inactive); with SW-620 it was 70.5 µM (inactive); in the experiment on SNB-75, 14 µM (inactive); with NCI-H226, 22.5 µM (inactive). For the same compound, the GI50 is 67.3 µM (inactive) in the experiment on HOP-62; 8.09 µM (inactive) with OVCAR-8; > 100 µM (inactive) with MDA-MB-435; > 100 µM (inactive) in the experiment with NCI-H522; > 100 µM (inactive) with U-251; 47.4 µM (inactive) in the experiment on SK-MEL-5. In addition, the GI50 in the experiment on SNB-19 is > 100 µM (inactive).

In the case of `O=C1COc2cc(N3CCN(c4cccc(C(F)(F)F)c4)CC3)ccc2N1`, the GI50 in the experiment on SF-539, in the experiment on COLO 205, with HOP-92, in the experiment with 786-0, in the experiment with HL-60 and in the experiment on ACHN was > 100 µM (inactive) in each case. Besides, the GI50 in the experiment on PC-3, in the experiment with UO-31, in the experiment with NCI/ADR-RES, in the experiment with SW-620, in the experiment with SNB-75 and in the experiment with NCI-H226 was > 100 µM (inactive) in each case. Besides, the GI50 in the experiment with HOP-62 is > 100 µM (inactive); in the experiment with OVCAR-8, > 100 µM (inactive); with MDA-MB-435, > 100 µM (inactive); with NCI-H522, 86.3 µM (inactive); in the experiment with U-251, > 100 µM (inactive); with SK-MEL-5 it was > 100 µM (inactive). The GI50 in the experiment with SNB-19 is > 100 µM (inactive).

For `O=C(NC(=S)Nc1ccc([N+](=O)[O-])cc1)c1ccc2c(c1)Sc1ccccc1O2`, the GI50 in the experiment on SF-539 is 45.7 µM (inactive); in the experiment with COLO 205, > 100 µM (inactive); in the experiment on HOP-92, 37.3 µM (inactive); in the experiment with 786-0, 44.8 µM (inactive); in the experiment on HL-60, > 100 µM (inactive); in the experiment on ACHN it was 49.9 µM (inactive). Besides, the GI50 was > 100 µM (inactive) in the experiment with PC-3; > 100 µM (inactive) in the experiment with UO-31; > 100 µM (inactive) in the experiment on NCI/ADR-RES; > 100 µM (inactive) in the experiment with SW-620; 13.8 µM (inactive) in the experiment with SNB-75; > 100 µM (inactive) in the experiment on NCI-H226. Further, the GI50 was 78.5 µM (inactive) in the experiment with HOP-62; > 100 µM (inactive) in the experiment on OVCAR-8; > 100 µM (inactive) with MDA-MB-435; 48.1 µM (inactive) with NCI-H522; 37 µM (inactive) in the experiment with U-251; > 100 µM (inactive) in the experiment on SK-MEL-5. In the experiment on SNB-19, the GI50 was 53.3 µM (inactive).

`COC(=O)c1ccccc1CC1Cc2c(C)ccc(C)c2C1=O` (stereo not given): the GI50 is 51.2 µM (inactive) in the experiment on SF-539; 19.1 µM (inactive) in the experiment with COLO 205; 17.2 µM (inactive) in the experiment on HOP-92; 36.3 µM (inactive) in the experiment with 786-0; 23.3 µM (inactive) in the experiment on HL-60; 33.8 µM (inactive) with ACHN. The GI50 with PC-3 is 34.8 µM (inactive); with UO-31, 25.8 µM (inactive); in the experiment on NCI/ADR-RES, 18.3 µM (inactive); in the experiment with SW-620 it was 35.6 µM (inactive); in the experiment with SNB-75, 36.1 µM (inactive); with NCI-H226 it was 38.9 µM (inactive). The GI50 in the experiment with HOP-62 was 60.1 µM (inactive); in the experiment with OVCAR-8, 42.1 µM (inactive); in the experiment with MDA-MB-435, 23.1 µM (inactive); with NCI-H522 it was 21.6 µM (inactive); with U-251 it was 33.8 µM (inactive); in the experiment with SK-MEL-5, 17.8 µM (inactive). The GI50 with SNB-19 is 37.9 µM (inactive).

As to `O=S(=O)(O)c1cc(O)c2c(/N=C\c3ccccc3O)cc(S(=O)(=O)O)cc2c1`, the GI50 with SF-539 is > 100 µM (inactive); in the experiment on COLO 205 it was > 100 µM (inactive); in the experiment on HOP-92 it was > 100 µM (inactive); in the experiment with 786-0, > 100 µM (inactive); with HL-60, 57.9 µM (inactive); in the experiment with ACHN it was > 100 µM (inactive). Further, the GI50 is > 100 µM (inactive) in the experiment with PC-3; > 100 µM (inactive) with UO-31; > 100 µM (inactive) with NCI/ADR-RES; > 100 µM (inactive) with SW-620; 93.5 µM (inactive) in the experiment with SNB-75; > 100 µM (inactive) with NCI-H226. Also, the GI50 in the experiment on HOP-62, in the experiment on OVCAR-8, in the experiment on MDA-MB-435, with NCI-H522, with U-251 and with SK-MEL-5 was > 100 µM (inactive) throughout. The GI50 with SNB-19 was > 100 µM (inactive).

For the origin of these results see ChEMBL document CHEMBL1201862, “PubChem BioAssay data set” (2004).
